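These data come from cells grown in 96-well plates and exposed to compound for 48 hours at five concentrations. At the GI50, growth is halved.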 Calls of active or inactive are those of the source. No stated cut-off is given here; in the data, active = GI50 up to about 1.1 µM and inactive = higher.
Legend:
Experiment in all cases: DTP human tumour cell line panel, 48 h
XF498 = system: XF498
LXFL 529 = system: LXFL 529
M19-MEL = system: M19-MEL
RXF 631 = system: RXF 631
DMS-273 = system: DMS-273
HOP-18 = system: HOP-18
KM-20L2 = system: KM-20L2
DLD-1 = system: DLD-1
DMS-114 = system: DMS-114

SMILES	GI50 (XF498)	GI50 (LXFL 529)	GI50 (M19-MEL)	GI50 (RXF 631)	GI50 (DMS-273)	GI50 (HOP-18)	GI50 (KM-20L2)	GI50 (DLD-1)	GI50 (DMS-114)
O=C(O)CN(c1ccc(Cl)cc1)S(=O)(=O)c1ccccc1	> 100 µM (inactive)	> 100 µM (inactive)	> 100 µM (inactive)	> 100 µM (inactive)	> 100 µM (inactive)	> 100 µM (inactive)	> 100 µM (inactive)	> 100 µM (inactive)	–
CN1CC(=O)N(C)c2ncn(Cc3ccccc3)c2C1=O	17 µM (inactive)	> 100 µM (inactive)	> 100 µM (inactive)	4.68 µM (inactive)	> 100 µM (inactive)	> 100 µM (inactive)	–	> 100 µM (inactive)	> 100 µM (inactive)
COC(=O)C1=C(c2cc(OC)c(OC)c(OC)c2)OC(c2cc(OC)c(OC)c(OC)c2)C1COC(C)=O (stereo not given)	32.4 µM (inactive)	34.4 µM (inactive)	32.1 µM (inactive)	17.4 µM (inactive)	25.6 µM (inactive)	–	71.6 µM (inactive)	26.2 µM (inactive)	34.7 µM (inactive)
O=C(/C=C/c1ccccc1)/C=C/c1ccccc1O	49.1 µM (inactive)	16.8 µM (inactive)	17.9 µM (inactive)	–	–	0.488 µM (active)	19.1 µM (inactive)	18 µM (inactive)	17.8 µM (inactive)
Clc1ccc(CN2COc3c(cc(Cl)c4cccnc34)C2)cc1	0.973 µM (active)	1.36 µM (inactive)	2.28 µM (inactive)	10.3 µM (inactive)	1.78 µM (inactive)	3.96 µM (inactive)	14.3 µM (inactive)	2.52 µM (inactive)	1.84 µM (inactive)
CCN(CC)c1c(C(=O)/C=C/c2ccc(OC)cc2)c(-c2ccccc2)nn(C)c1=O	–	10.7 µM (inactive)	6.34 µM (inactive)	20.6 µM (inactive)	2.37 µM (inactive)	22.2 µM (inactive)	15.4 µM (inactive)	12.1 µM (inactive)	13.4 µM (inactive)
O=C1CCC(C(=O)O)C2=C1CCCC2 (stereo not given)	> 100 µM (inactive)	> 100 µM (inactive)	> 100 µM (inactive)	–	17.1 µM (inactive)	> 100 µM (inactive)	–	> 100 µM (inactive)	> 100 µM (inactive)
CO/C=C/c1cc2c(cc1C(OC)OC)OCO2	33.4 µM (inactive)	–	76.4 µM (inactive)	43.7 µM (inactive)	30.3 µM (inactive)	–	35.2 µM (inactive)	36.1 µM (inactive)	32.9 µM (inactive)
Nc1nc2c(nnn2C2C=C(CO)C(O)C2O)c(=O)[nH]1 (stereo not given)	> 100 µM (inactive)	> 100 µM (inactive)	> 100 µM (inactive)	–	> 100 µM (inactive)	> 100 µM (inactive)	> 100 µM (inactive)	> 100 µM (inactive)	> 100 µM (inactive)
Oc1ncnc2c1CCCN2	–	> 100 µM (inactive)	> 100 µM (inactive)	–	–	16.5 µM (inactive)	> 100 µM (inactive)	> 100 µM (inactive)	> 100 µM (inactive)
COC(=O)C(=O)C(C(=O)C1=NS(=O)(=O)c2cc(S(N)(=O)=O)c(Cl)cc2N1)c1nc2ccc(C(=O)c3ccccc3)cc2nc1O (stereo not given)	39 µM (inactive)	38.9 µM (inactive)	> 100 µM (inactive)	86.9 µM (inactive)	> 100 µM (inactive)	> 100 µM (inactive)	> 100 µM (inactive)	–	–
CC(C)(Oc1ccc2c(=O)cc(-c3ccccc3)oc2c1)C(=O)Nc1c(Cl)cccc1Cl	14.3 µM (inactive)	81.7 µM (inactive)	68.2 µM (inactive)	–	64.4 µM (inactive)	> 100 µM (inactive)	> 100 µM (inactive)	–	19.7 µM (inactive)
Cc1ccc(Nc2ccc(Nc3ccc(C)cc3)c3c2C(=O)c2c(O)ccc(O)c2C3=O)cc1	> 100 µM (inactive)	75.2 µM (inactive)	> 100 µM (inactive)	–	> 100 µM (inactive)	–	–	> 100 µM (inactive)	> 100 µM (inactive)
CC1=NN(C(=O)Cc2ccccc2)C(=O)/C1=C\c1ccc(O)cc1	> 100 µM (inactive)	> 100 µM (inactive)	> 100 µM (inactive)	–	–	–	> 100 µM (inactive)	> 100 µM (inactive)	> 100 µM (inactive)
CC1=C(C(=O)Nc2cccc(C(F)(F)F)c2)C(c2ccccc2F)C(C(=O)Nc2cccc(C(F)(F)F)c2)=C(C)N1	2.09 µM (inactive)	5.57 µM (inactive)	7.45 µM (inactive)	10 µM (inactive)	–	–	4.51 µM (inactive)	6.21 µM (inactive)	3.33 µM (inactive)
CC1=C(C(=O)Nc2ccc([N+](=O)[O-])cc2)C(c2ccc(N(C)C)cc2)C(C(=O)Nc2ccc([N+](=O)[O-])cc2)=C(C)N1	–	16.8 µM (inactive)	15.6 µM (inactive)	–	–	–	11.4 µM (inactive)	11.9 µM (inactive)	–
CCc1cccc(CC)c1NC(=O)/C(Cl)=C(/Cl)C(=O)O	22.6 µM (inactive)	13.6 µM (inactive)	31.6 µM (inactive)	–	50 µM (inactive)	24.3 µM (inactive)	43.8 µM (inactive)	22.8 µM (inactive)	23.2 µM (inactive)
O=C(O)CCSC(=S)Nc1ccc([N+](=O)[O-])cc1	–	46.6 µM (inactive)	–	–	75.9 µM (inactive)	–	> 100 µM (inactive)	–	37.7 µM (inactive)

Reference: ChEMBL document CHEMBL1201862, “PubChem BioAssay data set” (2004)
